# Read-outs that look alike come from different tables or passages of the source.
# Assay: Solubility of the dye compound
# Assay type: physicochemical
# [1] = water, read-out: solubility in water
# [2] = compound obtained as a sodium salt, read-out: solubility
SMILES,solubility [1] [mg/mL],solubility [2] [mg/mL]
CCCc1c(N=Nc2cc(C)c(N=Nc3ccc(N=Nc4ccc(S(=O)(=O)O)cc4)cc3S(=O)(=O)O)cc2OCCCS(=O)(=O)O)c(O)n2c(nc3ccccc32)c1C#N.CS(=O)(=O)O [Compound No. 3],,≥ 100
CS(=O)(=O)O.Cc1cc(N=Nc2c(C)c(C#N)c3nc4ccccc4n3c2O)c(OCCCCS(=O)(=O)O)cc1N=Nc1ccc(N=Nc2ccc(S(=O)(=O)O)cc2)cc1S(=O)(=O)O [Compound No. 20],,≥ 100
CS(=O)(=O)O.Cc1cc(N=Nc2c(C)c(C#N)c3nc4ccccc4n3c2O)c(OCCCS(=O)(=O)O)cc1N=Nc1cc(C)c(N=Nc2ccc(S(=O)(=O)O)cc2C(=O)O)cc1OCCCS(=O)(=O)O [Compound No. 6],,≥ 100
CS(=O)(=O)O.Cc1cc(N=Nc2c(-c3ccccc3)c(C#N)c3nc4ccccc4n3c2O)c(OCCCS(=O)(=O)O)cc1N=Nc1ccc(N=Nc2ccc(S(=O)(=O)O)cc2)cc1S(=O)(=O)O [Compound No. 4],,≥ 100
CS(=O)(=O)O.Cc1cc(N=Nc2c(C)c(C(N)=O)c3nc4ccccc4n3c2O)c(OCCCS(=O)(=O)O)cc1N=Nc1cc(C)c(N=Nc2ccc(S(=O)(=O)O)cc2C(=O)O)cc1OCCCS(=O)(=O)O [Compound No. 7],,≥ 100

# Further lines, results first:
solubility [1] [mg/mL],solubility [2] [mg/mL],SMILES
≥ 100,,Cc1cc(N=Nc2c(S(=O)(=O)O)cc3c(S(=O)(=O)O)c(N=Nc4c(S(=O)(=O)O)cc5c(S(=O)(=O)O)c(N=Nc6cc(S(=O)(=O)O)c7cc(S(=O)(=O)O)c(N=Nc8ccc([N+](=O)[O-])cc8S(=O)(=O)O)c(O)c7c6N)ccc5c4O)ccc3c2O)c(OCCCS(=O)(=O)O)cc1N=Nc1cc(C(=O)O)cc(C(=O)O)c1 [formula (II-61)]
≥ 100,,Nc1c(N=Nc2ccc3c(O)c(N=Nc4ccc5c(O)c(N=Nc6ccc(N=Nc7ccc(S(=O)(=O)O)cc7)cc6S(=O)(=O)O)c(S(=O)(=O)O)cc5c4S(=O)(=O)O)c(S(=O)(=O)O)cc3c2S(=O)(=O)O)cc(S(=O)(=O)O)c2cc(S(=O)(=O)O)c(N=Nc3ccc(S(=O)(=O)O)cc3[N+](=O)[O-])c(O)c12 [formula (II-57)]
≥ 100,,Cc1cc(N=Nc2c(S(=O)(=O)O)cc3c(S(=O)(=O)O)c(N=Nc4c(S(=O)(=O)O)cc5c(S(=O)(=O)O)c(N=Nc6cc(S(=O)(=O)O)c7cc(S(=O)(=O)O)c(N=Nc8ccc([N+](=O)[O-])cc8S(=O)(=O)O)c(O)c7c6N)ccc5c4O)ccc3c2O)c(OCCCS(=O)(=O)O)cc1N=Nc1cc(S(=O)(=O)O)cc2cc(S(=O)(=O)O)cc(O)c12 [formula (II-59)]
≥ 100,,Nc1c(N=Nc2ccc3c(O)c(N=Nc4ccc5c(O)c(N=Nc6ccc(N=Nc7ccc(S(=O)(=O)O)cc7)cc6S(=O)(=O)O)c(S(=O)(=O)O)cc5c4S(=O)(=O)O)c(S(=O)(=O)O)cc3c2S(=O)(=O)O)cc(S(=O)(=O)O)c2cc(S(=O)(=O)O)c(N=Nc3ccc([N+](=O)[O-])cc3S(=O)(=O)O)c(O)c12 [formula (II-56)]
,≥ 100,Cc1cc(N=Nc2c(S(=O)(=O)O)cc3c(S(=O)(=O)O)c(N=Nc4cc(S(=O)(=O)O)c5cc(S(=O)(=O)O)c(N=Nc6ccc([N+](=O)[O-])cc6S(=O)(=O)O)c(O)c5c4N)ccc3c2O)c(OCCCS(=O)(=O)O)cc1N=Nc1cc(C)c(N=Nc2ccc(S(=O)(=O)O)c3cc(S(=O)(=O)O)cc(O)c23)cc1OCCCS(=O)(=O)O [formula (75)]

# — US8167991B2, “Trisazo compound, ink composition, recording method, and colored article” (Nippon Kayaku Kabushiki Kaisha, priority 2006, dated 2012)
